Test results reported in patent US10995068B2, “Synthetic sphingolipid-like molecules, drugs, methods of their synthesis and methods of treatment” (The Regents of the University of California, priority 2015, dated 2021).

Tests used:
[1] = Mass spectrometry quantification of SH-BC-893 in plasma and tumor; type: in vivo; conditions: SW620 xenograft mice, UPLC-MS/MS
Procedure: In many embodiments, exemplary experimentation was carried out to determine whether azacyclic constrained sphingolipid-lipid molecules inhibited neoplastic growth in vivo. To carry out this experimentation, luciferase-expressing SW620 xenografts were generated in mice.
Mass spectrometry quantification of SH-BC-893. As an internal standard, 75 ng FTY720 was added to 50 μl plasma or 50 μl of tumor homogenate (0.25 M sucrose, 25 mM KCl, 50 mM Tris HCl, 0.5 mM EDTA, pH 7.4; 1:9 wt:volume) combined 1:1 with acetonitrile. Proteins were precipitated and removed by centrifugation (10 min at 15,000 rpm) and the supernatant transferred to a fresh tube on ice containing 50 μl of acetonitrile+0.2% acetic acid. After a second de-proteination with acetonitrile+0.2% acetic acid, 20 μl of de-proteinated samples were analyzed by UPLC-MS/MS using a Waters Micromass Quattro Premier XE equipped with a C18 reversed phase column (Waters) with an acetonitrile+0.2% acetic acid gradient elution. The instrument was operated in positive ion mode. Ion transition channels for multiple reaction monitoring were 290→104 for SH-BC-893 with a dwell time of 200 msec. The cone voltage was 30V. Standard curves used for quantitation were linear from 50-1000 ng/ml with an R^2 of 0.98 or greater. Recovery of internal standard was >80%. Tumor concentrations were calculated assuming that 1 gm=1 mL.

[2] = test system: 4F2hc, ASCT2, GLUT1; experiment: Nutrient transporter internalization; type: cell-based; conditions: CD147 not affected
Source text: As a proof of principle concerning the ability of C-aryl azacyclic constrained sphingolipid-like compounds, compound SH-BC-893 was examined thoroughly in a series of exemplary embodiment experiments. (The chemical structure of SH-BC-893, also referred to in the in this application as compound 5 and compound 104, and of FTY720 are shown in FIG. 51A). Results are provided below, along with a number of correlated data tables and graphs (Tables 7 and 8 and FIGS. 51-67). In embodiments, SH-BC-893 induces nutrient transporter loss and mimics starvation without the S1P receptor associated toxicity of FTY720. SH-BC-893 lacks the sphingosine-1-phosphate (S1P) receptor activity that prevents the use of FTY720 in cancer patients (FIG. 51B). […]
Light Microscopy: Brightfield and epifluorescence microscopy were conducted using a Nikon TE2000-S fluorescence microscope; confocal microscopy was performed on a Zeiss LSM780 confocal microscope or Nikon Eclipse Ti spinning disk confocal microscope. […] Co-localization was determined using JACoP plugin in ImageJ software. Macropinocytosis was measured after 16 h incubation in serum-free DMEM. p53−/−; LSL-K-RasG12D MEFs before (LSL) or after (KRasG12D) introduction of Cre were serum starved for 16 h and then treated with macropinocytosis inhibitor 5-(N-ethyl-N-isopropyl) amiloride (EIPA, 75 μM) for 1 h or SH-BC-893 for 6 h. […]

Structure (SMILES): CCCCCCCCc1ccc([C@H]2CCN[C@@H]2CO)cc1.Cl [Compound 5, (2S,3R)-2-(hydroxymethyl)-3-(4-octylphenyl)Pyrrolidinium chloride]
- concentration in plasma at sacrifice [1]: low micromolar concentrations
- concentration in tumors at sacrifice [1]: low micromolar concentrations
- internalization of amino acid and glucose transporters (4F2hc, ASCT2, GLUT1) [2]: triggers the selective internalization
